pIC50: −log10 of the molar value.

For 16 compounds, IC50 results are on record in patent US20250179103A1, “6-OXODECAHYDROPYRROLO[1,2-A][1,5]DIAZOCINE AND 6-OXODECAHYDRO-4H-PYRROLO[2,1-D][1,5]THIAZOCINE DERIVATIVES AS STAT3 AND STAT6 MODULATORS FOR THE TREATMENT OF CANCER AND INFLAMMATORY CONDITIONS” (Recludix Pharma, Inc., priority 2022, published 2025).

Test [1] concerns the target T1, Recombinant STAT3 protein (STAT3(G127-I722)) (Homo sapiens, UniProt P40763).
T1 construct: Recombinant STAT3 protein (STAT3(G127-I722))
Kind of test: STAT3 Fluorescence Polarization (FP) Assay. Particulars: STAT3(G127-I722) 25 nM, probe 5-FAM-GpYLPQTV-NH2 2 nM, 45-minute incubation. The class given is binding. An outline of the steps:
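STAT3(G127-I722), 25 nM, was mixed with 2 nM 5-FAM-GpYLPQTV-NH2 probe in HEPES pH 7.4 buffer with 1% DMSO and serially diluted compound. FP (mP) was read after 45 min at room temperature. IC50 came from nonlinear regression.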
A general note: In fluorescence polarisation assays a small probe gives low polarisation when free and higher when bound to something large.

The target of test [2] is T2, Recombinant STAT6 protein (STAT6(W123-T658)) (Homo sapiens, UniProt P42226).
T2 construct: Recombinant STAT6 protein (STAT6(W123-T658))
T2 sequence (P42226 123-658): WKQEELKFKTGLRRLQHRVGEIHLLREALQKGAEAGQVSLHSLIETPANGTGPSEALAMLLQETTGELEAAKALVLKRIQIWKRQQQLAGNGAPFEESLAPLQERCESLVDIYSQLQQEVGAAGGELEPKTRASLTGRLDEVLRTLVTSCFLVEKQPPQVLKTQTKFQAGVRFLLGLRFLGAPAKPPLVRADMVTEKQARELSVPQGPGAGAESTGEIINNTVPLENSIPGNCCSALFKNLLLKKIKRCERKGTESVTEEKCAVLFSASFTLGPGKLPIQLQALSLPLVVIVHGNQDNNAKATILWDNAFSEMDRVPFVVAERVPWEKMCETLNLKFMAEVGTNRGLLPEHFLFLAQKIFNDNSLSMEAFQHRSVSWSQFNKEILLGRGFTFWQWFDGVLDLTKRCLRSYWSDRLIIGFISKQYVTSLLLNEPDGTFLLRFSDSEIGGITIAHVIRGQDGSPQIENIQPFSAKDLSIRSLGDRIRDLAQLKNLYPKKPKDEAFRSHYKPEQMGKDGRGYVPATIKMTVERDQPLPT
Briefly: STAT6 Fluorescence Polarization (FP) Assay. Particulars: STAT6(W123-T658) 250 nM, probe 5-FAM-ApYKPFQDLI-NH2 2 nM, 45-minute incubation. The class given is binding. An outline of the steps: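 Displacement of a fluorescent phosphotyrosine peptide (5-FAM-ApYKPFQDLI-NH2, 2 nM) from STAT6(W123-T658) (250 nM), 1% DMSO, pH 7.4 HEPES buffer. After 45 min at room temperature, polarization (mP) was plotted versus log compound concentration and fitted by nonlinear regression to give IC50.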

T1 sequence (P40763 127-722): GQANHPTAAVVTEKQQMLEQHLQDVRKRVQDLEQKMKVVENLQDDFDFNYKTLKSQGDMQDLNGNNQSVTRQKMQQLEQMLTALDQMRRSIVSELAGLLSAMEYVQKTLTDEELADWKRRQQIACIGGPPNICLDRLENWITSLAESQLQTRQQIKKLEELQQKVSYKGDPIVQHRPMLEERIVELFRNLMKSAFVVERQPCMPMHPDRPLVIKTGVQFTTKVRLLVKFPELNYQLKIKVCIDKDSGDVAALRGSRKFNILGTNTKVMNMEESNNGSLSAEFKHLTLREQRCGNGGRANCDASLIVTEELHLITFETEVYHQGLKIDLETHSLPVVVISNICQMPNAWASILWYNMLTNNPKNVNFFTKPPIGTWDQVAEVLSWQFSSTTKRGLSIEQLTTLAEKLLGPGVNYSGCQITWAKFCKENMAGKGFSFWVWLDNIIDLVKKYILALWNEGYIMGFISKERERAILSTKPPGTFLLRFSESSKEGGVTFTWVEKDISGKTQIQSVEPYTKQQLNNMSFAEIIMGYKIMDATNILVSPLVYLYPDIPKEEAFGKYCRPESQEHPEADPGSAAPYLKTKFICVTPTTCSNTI

In the case of `CC(=O)N1CC[C@H]2CC[C@@H](C(=O)N3CCCC3Cc3cccc(Cl)c3)N2C(=O)[C@@H](NC(=O)c2cc3cc(C(F)(F)P(=O)(O)O)ccc3[nH]2)C1` (stereo partly drawn) [Compound 132, ((2-(((5S,8S,10aR)-3-acetyl-8-(2-(3-chlorobenzyl)pyrrolidine-1-carbonyl)-6-oxodecahydropyrrolo[1,2-a][1,5]diazocin-5-yl)carbamoyl)-1H-indol-5-yl)difluoromethyl)phosphonic acid], the values for the pIC50 in test [1] and in test [2] were 5.00 to 6.00 and 5.52 to 6.52, respectively.

With `CC(=O)N1CC[C@H]2CC[C@@H](C(=O)N3CCCC3Cc3ccccc3F)N2C(=O)[C@@H](NC(=O)c2cc3cc(C(F)(F)P(=O)(O)O)ccc3[nH]2)C1` (stereo partly drawn) [Compound 133, ((2-(((5S,8S,10aR)-3-acetyl-8-(2-(2-fluorobenzyl)pyrrolidine-1-carbonyl)-6-oxodecahydropyrrolo[1,2-a][1,5]diazocin-5-yl)carbamoyl)-1H-indol-5-yl)difluoromethyl)phosphonic acid], the negative-log IC50 (pIC50) (commonly the IC50 on a negative log10 scale, so that one unit is a factor of ten) in test [1] is 5.00 to 6.00; in test [2] it was 5.52 to 6.52.

Consider `CC(=O)N1CC[C@H]2CC[C@@H](C(=O)N(C)C3CCCCC3)N2C(=O)[C@@H](NC(=O)c2cc3cc(C(F)(F)P(=O)(O)O)ccc3[nH]2)C1` [Compound 134], for which the pIC50 in test [1] was 5.00 to 6.00; in test [2], 5.52 to 6.52.

For the compound `CC(=O)N1CC[C@H]2CC[C@@H](C(=O)N(C)c3ccc(OC(F)(F)F)cc3)N2C(=O)[C@@H](NC(=O)c2cc3cc(C(F)(F)P(=O)(O)O)ccc3[nH]2)C1` [Compound 135, ((2-(((5S,8S,10aR)-3-acetyl-8-(methyl(4-(trifluoromethoxy)phenyl)carbamoyl)-6-oxodecahydropyrrolo[1,2-a][1,5]diazocin-5-yl)carbamoyl)-1H-indol-5-yl)difluoromethyl)phosphonic acid], the pIC50 in test [1] is 5.00 to 6.00; in test [2], 5.52 to 6.52.

As for `CC(=O)N1CC[C@H]2CC[C@@H](C(=O)N(C)c3ccc(C(C)(C)C)cc3)N2C(=O)[C@@H](NC(=O)c2cc3cc(C(F)(F)P(=O)(O)O)ccc3[nH]2)C1` [Compound 136, ((2-(((5S,8S,10aR)-3-acetyl-8-((4-(tert-butyl)phenyl)(methyl)carbamoyl)-6-oxodecahydropyrrolo[1,2-a][1,5]diazocin-5-yl)carbamoyl)-1H-indol-5-yl)difluoromethyl)phosphonic acid], the negative logarithm of the IC50 (pIC50) was 5.00 to 6.00 in test [1] and ≥ 6.52 in test [2].

In the case of `COCCOc1ccc(N(C)C(=O)[C@@H]2CC[C@@H]3CCN(C(C)=O)C[C@H](NC(=O)c4cc5cc(C(F)(F)P(=O)(O)O)ccc5[nH]4)C(=O)N32)cc1` [Compound 137, ((2-(((5S,8S,10aR)-3-acetyl-8-((4-(2-methoxyethoxy)phenyl)(methyl)carbamoyl)-6-oxodecahydropyrrolo[1,2-a][1,5]diazocin-5-yl)carbamoyl)-1H-indol-5-yl)difluoromethyl)phosphonic acid], the pIC50 in test [1] is 5.00 to 6.00; in test [2], 5.52 to 6.52.

As to `CC(=O)N1CC[C@H]2CC[C@@H](C(=O)Nc3ccn(-c4ccccc4)c(=O)c3)N2C(=O)[C@@H](NC(=O)c2cc3cc(C(F)(F)P(=O)(O)O)ccc3[nH]2)C1` [Compound 140, ((2-(((5S,8S,10aR)-3-acetyl-6-oxo-8-((2-oxo-1-phenyl-1,2-dihydropyridin-4-yl)carbamoyl)decahydropyrrolo[1,2-a][1,5]diazocin-5-yl)carbamoyl)-1H-indol-5-yl)difluoromethyl)phosphonic acid], the values for the pIC50 in test [1] and in test [2] were 6.00 to 7.00 and 5.52 to 6.52, respectively.

Regarding `CC(=O)N1CC[C@H]2CC[C@@H](C(=O)N(C)c3ccc(C(C)(C)c4ccccc4)cc3)N2C(=O)[C@@H](NC(=O)c2cc3cc(C(F)(F)P(=O)(O)O)ccc3s2)C1` [Compound 155, ((2-(((5S,8S,10aR)-3-acetyl-8-(methyl(4-(2-phenylpropan-2-yl)phenyl)carbamoyl)-6-oxodecahydropyrrolo[1,2-a][1,5]diazocin-5-yl)carbamoyl)benzo[b]thiophen-5-yl)difluoromethyl)phosphonic acid], the pIC50 in test [1] was 5.00 to 6.00; in test [2], 5.52 to 6.52.

On to `CC(=O)N1CC[C@H]2CC[C@@H](C(=O)N(C)c3ccc(C(C)(C)CO)cc3)N2C(=O)[C@@H](NC(=O)c2cc3cc(C(F)(F)P(=O)(O)O)ccc3s2)C1` [Compound 156, ((2-(((5S,8S,10aR)-3-acetyl-8-((4-(1-hydroxy-2-methylpropan-2-yl)phenyl)(methyl)carbamoyl)-6-oxodecahydropyrrolo[1,2-a][1,5]diazocin-5-yl)carbamoyl)benzo[b]thiophen-5-yl)difluoromethyl)phosphonic acid], for which the negative-log IC50 (pIC50) in test [1] was 5.00 to 6.00; in test [2], 5.52 to 6.52.

For the compound `CC(=O)N1CC[C@H]2CC[C@@H](C(=O)Nc3ccc4cn(C)nc4c3)N2C(=O)[C@@H](NC(=O)c2cc3cc(C(F)(F)P(=O)(O)O)ccc3s2)C1` [Compound 157, ((2-(((5S,8S,10aR)-3-acetyl-8-((2-methyl-2H-indazol-6-yl)carbamoyl)-6-oxodecahydropyrrolo[1,2-a][1,5]diazocin-5-yl)carbamoyl)benzo[b]thiophen-5-yl)difluoromethyl)phosphonic acid], the figures for the pIC50 in test [1] and in test [2] were 5.00 to 6.00 and 5.52 to 6.52, respectively.

As for `CC(=O)N1CC[C@H]2CC[C@@H](C(=O)Nc3ccc4cnccc4c3)N2C(=O)[C@@H](NC(=O)c2cc3cc(C(F)(F)P(=O)(O)O)ccc3s2)C1` [Compound 158, ((2-(((5S,8S,10aR)-3-acetyl-8-(isoquinolin-6-ylcarbamoyl)-6-oxodecahydropyrrolo[1,2-a][1,5]diazocin-5-yl)carbamoyl)benzo[b]thiophen-5-yl)difluoromethyl)phosphonic acid], the pIC50 in test [1] is 6.00 to 7.00; in test [2], 5.52 to 6.52.

With `CCC(C)(C)c1ccc(N(C)C(=O)[C@@H]2CC[C@@H]3CCN(C(C)=O)C[C@H](NC(=O)c4cc5cc(C(F)(F)P(=O)(O)O)ccc5s4)C(=O)N32)cc1` [Compound 159, ((2-(((5S,8S,10aR)-3-acetyl-8-(methyl(4-(tert-pentyl)phenyl)carbamoyl)-6-oxodecahydropyrrolo[1,2-a][1,5]diazocin-5-yl)carbamoyl)benzo[b]thiophen-5-yl)difluoromethyl)phosphonic acid], the pIC50 in test [1] was 5.00 to 6.00; in test [2], 5.52 to 6.52.

With `CC(=O)N1CC[C@H]2CC[C@@H](C(=O)N(C)c3ccc(C(C)(C)C)c(Cl)c3)N2C(=O)[C@@H](NC(=O)c2cc3cc(C(F)(F)P(=O)(O)O)ccc3s2)C1` [Compound 160, ((2-(((5S,8S,10aR)-3-acetyl-8-((4-(tert-butyl)-3-chlorophenyl)(methyl)carbamoyl)-6-oxodecahydropyrrolo[1,2-a][1,5]diazocin-5-yl)carbamoyl)benzo[b]thiophen-5-yl)difluoromethyl)phosphonic acid], the values for the pIC50 in test [1] and in test [2] were 5.00 to 6.00 and 5.52 to 6.52, respectively.

With `CC(=O)N1CC[C@H]2CC[C@@H](C(=O)Nc3ccc4c(cnn4C)c3)N2C(=O)[C@@H](NC(=O)c2cc3cc(C(F)(F)P(=O)(O)O)ccc3s2)C1` [Compound 161, ((2-(((5S,8S,10aR)-3-acetyl-8-((1-methyl-1H-indazol-5-yl)carbamoyl)-6-oxodecahydropyrrolo[1,2-a][1,5]diazocin-5-yl)carbamoyl)benzo[b]thiophen-5-yl)difluoromethyl)phosphonic acid], the negative-log IC50 (pIC50) in test [1] was 5.00 to 6.00; in test [2] it was 5.52 to 6.52.

For the compound `CC(=O)N1CC[C@H]2CC[C@@H](C(=O)N3CCC[C@H]3c3ccccc3)N2C(=O)[C@@H](NC(=O)c2cc3cc(C(F)(F)P(=O)(O)O)ccc3[nH]2)C1` [Compound 162, ((2-(((5S,8S,10aR)-3-acetyl-6-oxo-8-((S)-2-phenylpyrrolidine-1-carbonyl)decahydropyrrolo[1,2-a][1,5]diazocin-5-yl)carbamoyl)-1H-indol-5-yl)difluoromethyl)phosphonic acid], the negative logarithm of the IC50 (pIC50) in test [1] is 5.00 to 6.00; in test [2] it was 5.52 to 6.52.

With `CC(=O)N1CC[C@H]2CC[C@@H](C(=O)N3CCC[C@H]3Cc3ccccc3)N2C(=O)[C@@H](NC(=O)c2cc3cc(C(F)(F)P(=O)(O)O)ccc3[nH]2)C1` [Compound 163, ((2-(((5S,8S,10aR)-3-acetyl-8-((S)-2-benzylpyrrolidine-1-carbonyl)-6-oxodecahydropyrrolo[1,2-a][1,5]diazocin-5-yl)carbamoyl)-1H-indol-5-yl)difluoromethyl)phosphonic acid], the negative-log IC50 (pIC50) was 5.00 to 6.00 in test [1] and 5.52 to 6.52 in test [2].
